The subject of one data set is MDA-MB-231. Nature of the data set: Antiproliferative activity against human MDA-MB-231 cells after 72 hrs by MTT assay. It is filed as functional, cell-based. The conditions noted are these: MDA-MB-231, 72 h.
For data set [1], the system named is HT-29. Nature of the data set: Antiproliferative activity against human HT-29 cells after 72 hrs by MTT assay. It is filed as functional, cell-based. The conditions noted are these: HT-29, 72 h.
A further data set has as its system A549. Nature of the data set: Antiproliferative activity against human A549 cells after 72 hrs by MTT assay. Type of data set: functional, cell-based. The conditions noted are these: A549, 72 h.
The test system of a further data set is A549/CDDP. Nature of the data set: Antiproliferative activity against human A549/CDDP cells after 72 hrs by MTT assay. It is filed as functional, cell-based. On the technique in general: Tetrazolium assays rely on reduction of a dye to a coloured formazan, in cell work by metabolically active cells.
Data set [2] deals with HT-29. Briefly: Induction of apoptosis in human HT-29 cells assessed as late apoptotic cells at 5 ug/mL after 72 hrs by Annexin V-FITC/propidium iodide staining-based flow cytometric analysis (reference value: 0.1%). Type of data set: functional.
Data set [3] concerns HT-29. Briefly: Antiproliferative activity against human HT-29 cells at 3.33 ug/ml after 36 to 72 hrs by phase contrast microscopy. Type of data set: functional, cell-based.
Data set [4] deals with HT-29. Nature of the data set: Cytotoxicity against human HT-29 cells assessed as increase in dead cells at 10 ug/mL up to 36 hrs by yoyo-1 dye-based fluorescence assay. It is filed as functional, cell-based.
For a further data set, the system named is MCF7. Nature of the data set: Antiproliferative activity against human MCF7 cells after 72 hrs by MTT assay. Type of data set: functional, cell-based. The conditions noted are these: MCF7, 72 h.
The subject of data set [5] is HT-29. Nature of the data set: Induction of apoptosis in human HT-29 cells assessed as early apoptotic cells at 5 ug/mL after 72 hrs by Annexin V-FITC/propidium iodide staining-based flow cytometric analysis (reference value: 0%). It is filed as functional.
The test system of data set [6] is HT-29. Briefly: Antiproliferative activity against human HT-29 cells at 10 ug/ml after 72 hrs by IncuCyte live-cell imaging assay. Type of data set: functional, cell-based.
The subject of a further data set is FHC. Nature of the data set: Cytotoxicity against human FHC cells after 72 hrs by MTT assay. Type of data set: cell-based.
Data set [7] in a line: Antiproliferative activity against human MCF7/DX cells after 72 hrs by MTT assay. It is filed as functional, cell-based.
Data set [8] relates to HT-29. Nature of the data set: Antimigratory activity against human HT-29 cells at 3.33 ug/mL after 48 to 72 hrs by wound healing assay. It is filed as functional, cell-based.
The nature of data set [9]: Selectivity index, ratio of IC50 for human FHC cells to IC50 for human HT-29 cells. It is filed as toxicity. The conditions noted are these: FHC cells and HT-29 cells, read-out: Ratio IC50.

Calls of active or inactive are those of the source. No cut-off for these calls is given here.

The IC50 is the concentration that inhibits the measured activity by half. A higher IC50 goes with lower potency. As for `COc1cc2c(Oc3c(F)cc(NC(=O)NN4C(=O)CSC4c4c(F)cccc4F)cc3F)ccnc2cc1OCCCN1CCN(C)CC1` (stereo not given), the figures for the IC50 in the data set on MDA-MB-231, in the data set with HT-29 [1] and in the data set with A549 were 4.36 µM, 0.15 µM and 0.51 µM, respectively.

`COc1cc2nccc(Oc3ccc(NC(=O)C4(C(=O)Nc5ccc(F)cc5)CC4)cc3)c2cc1OC` [CABOZANTINIB]: the IC50 in the data set with A549/CDDP was 19.6 µM; in the data set with MCF7 it was 8.57 µM; in the data set with MDA-MB-231, 13.4 µM; in the data set on FHC it was 4.4 µM; in the data set on HT-29 [1], 11.5 µM; in data set [7] it was above 50 µM. In addition, in the data set on A549, the IC50 was 9.52 µM. Further, the Activity in the data set with HT-29 [2] is on record as 10.9%; with HT-29 [5] it was 78.4%. Moreover, the outcome with HT-29 [3], in the data set on HT-29 [4], in the data set with HT-29 [6] and in the data set with HT-29 [8] was Active.

As for `COc1cc2c(Oc3c(F)cc(NC(=O)NN4C(=O)CSC4c4c(F)cccc4F)cc3F)ccnc2cc1OCCCN1C[C@H]2CCCC[C@H]2C1` (stereo not given in full), the figures for the IC50 in the data set with HT-29 [1] and in the data set with A549 were 0.47 µM and 1.93 µM, respectively.

For the molecule `COc1cc2c(Oc3c(F)cc(NC(=O)NN4C(=O)CSC4c4c(F)cccc4F)cc3F)ccnc2cc1OCCCN1CCC(N2CCCCC2)CC1` (stereo not given), the IC50 in the data set with MDA-MB-231 is 5.38 µM; in the data set with HT-29 [1], 0.28 µM; in the data set on A549, 0.38 µM.

Regarding `COc1cc2c(Oc3c(F)cc(NC(=O)NN4C(=O)CCSC4c4c(F)cccc4F)cc3F)ccnc2cc1OCCCN1CCc2sccc2C1` (stereo not given), the figures for the IC50 in the data set on HT-29 [1] and in the data set with A549 were 1.32 µM and above 20 µM, respectively.

On to `COc1cc2c(Oc3ccc(NC(=O)NN4C(=O)CSC4c4c(F)cccc4F)c(Cl)c3)ccnc2cc1OCCCN1CCCC1` (stereo not given), for which the results for the IC50 in the data set with HT-29 [1] and with A549 were 0.63 µM and 0.96 µM, respectively.

In the case of `COc1cc2c(Oc3ccc(NC(=O)NN4C(=O)CSC4c4c(F)cccc4F)cc3F)ccnc2cc1OCCCN1CCCC1` (stereo not given), the IC50 with MDA-MB-231 came out at 9.04 µM; in the data set with HT-29 [1] it was 0.35 µM; with A549 it was 0.69 µM.

For `COc1cc2c(Oc3c(F)cc(NC(=O)NN4C(=O)CCSC4c4c(F)cccc4F)cc3F)ccnc2cc1OCCCN1CCCC1` (stereo not given), the IC50 in the data set on MDA-MB-231 was 9.65 µM; with HT-29 [1], 0.27 µM; in the data set with A549 it was 0.4 µM.

With `COc1cc2c(Oc3c(F)cc(NC(=S)NN4C(=O)CSC4c4c(F)cccc4F)cc3F)ccnc2cc1OCCCN1CCCC1` (stereo not given), the IC50 was 8.12 µM in the data set with MDA-MB-231, 0.41 µM in the data set with HT-29 [1] and 0.69 µM in the data set with A549.

For the molecule `COc1cc2c(Oc3c(F)cc(NC(=O)NN4C(=O)C(C)(C)SC4c4c(F)cccc4F)cc3F)ccnc2cc1OCCCN1CCCC1` (stereo not given), the IC50 was 0.95 µM with HT-29 [1] and 1.45 µM in the data set on A549.

Regarding `COc1cc2c(Oc3c(F)cc(NC(=O)NN4C(=O)C(C)SC4c4c(F)cccc4F)cc3F)ccnc2cc1OCCCN1CCCC1` (stereo not given), the IC50 in the data set with HT-29 [1] came to 0.67 µM; in the data set on A549, 0.83 µM.

As for `CCN1CCN(CCCCOc2cc3nccc(Oc4c(F)cc(NC(=O)NN5C(=O)CSC5c5c(F)cccc5F)cc4F)c3cc2OC)CC1` (stereo not given), the IC50 in the data set on HT-29 [1] amounted to 0.83 µM; in the data set on A549, 1.39 µM.

Take `COc1cc2c(Oc3c(F)cc(NC(=O)NN4C(=O)CSC4c4c(F)cccc4F)cc3F)ccnc2cc1OCCN1CCC(N2CCCCC2)CC1` (stereo not given): the values for the IC50 in the data set on HT-29 [1] and in the data set with A549 were 0.49 µM and 2.38 µM, respectively.

`COc1cc2c(Oc3c(F)cc(NC(=O)NN4C(=O)CSC4c4c(F)cccc4F)cc3F)ccnc2cc1OCCCN1CCCC1` (stereo not given): the IC50 with MDA-MB-231 worked out at 8.35 µM; in the data set with HT-29 [1], 0.23 µM; in the data set on A549, 0.56 µM.

As for `COc1cc2c(Oc3c(F)cc(NC(=O)NN4C(=O)CSC4c4c(F)cccc4F)cc3F)ccnc2cc1OCCCN1CCc2sccc2C1` (stereo not given), the values for the IC50 with HT-29 [1] and in the data set with A549 were 1.41 µM and above 20 µM, respectively.

In the case of `COc1cc2c(Oc3ccc(NC(=O)NN4C(=O)CSC4c4c(F)cccc4F)cc3Cl)ccnc2cc1OCCCN1CCCC1` (stereo not given), the IC50 in the data set with HT-29 [1] is 0.48 µM; in the data set on A549 it was 0.88 µM.

Take `COc1cc2c(Oc3c(F)cc(NC(=O)NN4C(=O)CSC4c4c(F)cccc4F)cc3F)ccnc2cc1OCCCN1CCC(C)CC1` (stereo not given): the IC50 in the data set with MDA-MB-231 turned out to be 3.83 µM; in the data set on HT-29 [1], 0.22 µM; in the data set on A549 it was 0.97 µM.

On to `CCN1CCN(CCOc2cc3nccc(Oc4c(F)cc(NC(=O)NN5C(=O)CSC5c5c(F)cccc5F)cc4F)c3cc2OC)CC1` (stereo not given), for which the values for the 50% inhibitory concentration (IC50) in the data set on MDA-MB-231, in the data set with HT-29 [1] and in the data set on A549 were 5.91 µM, 0.35 µM and 1.52 µM, respectively.

For the molecule `COc1cc2c(Oc3c(F)cc(NC(=O)NN4C(=O)CCSC4c4c(F)cccc4F)cc3F)ccnc2cc1OCCCN1C[C@H]2CCCC[C@H]2C1` (stereo not given in full), the IC50 with HT-29 [1] amounted to 0.79 µM; in the data set with A549, 3.61 µM.

Turning to `COc1cc2c(Oc3c(F)cc(NC(=O)NN4C(=O)CCSC4c4c(F)cccc4F)cc3F)ccnc2cc1OCCCN1CCC(C)CC1` (stereo not given), the IC50 is 4.35 µM with MDA-MB-231, 0.41 µM in the data set with HT-29 [1] and 1.63 µM with A549.

On to `CCN(CC)CCCOc1cc2nccc(Oc3c(F)cc(NC(=O)NN4C(=O)CSC4c4c(F)cccc4F)cc3F)c2cc1OC` (stereo not given), for which the IC50 was 0.54 µM with A549/CDDP; 1.6 µM in the data set on MCF7; 3.79 µM in the data set with MDA-MB-231; 0.54 µM in the data set on FHC; 0.091 µM in the data set on HT-29 [1]; 3.4 µM in [7]. Besides, the IC50 with A549 is 0.45 µM. Besides, the selectivity ratio in data set [9] worked out at 5.9.

Take `COc1cc2c(Oc3ccc(NC(=O)NN4C(=O)CSC4c4c(F)cccc4F)c4ccccc34)ccnc2cc1OCCCN1CCCC1` (stereo not given): the IC50 in the data set on HT-29 [1] turned out to be 1.86 µM; in the data set with A549 it was 2.36 µM.

The values above are taken from ChEMBL document CHEMBL4330059, “Discovery of N1-(4-((7-(3-(4-ethylpiperazin-1-yl)propoxy)-6-methoxyquinolin-4-yl)oxy)-3,5-difluorophenyl)-N3-(2-(2,6-difluorophenyl)-4-oxothiazolidin-3-yl)urea as a multi-tyrosine kinase inhibitor for drug-sensitive and drug-resistant cancers treatment” (Eur J Med Chem, 2019).
